One molecule from paper PMC6767236, “Selective Cannabinoid 2 Receptor Agonists as Potential Therapeutic Drugs for the Treatment of Endotoxin-Induced Uveitis” (Molecules, 2019) can be followed below.

One may read the EC50 as the midpoint of the concentration-response curve. Broadly, the pKa is the pH at which an ionisable group is half protonated.

The subject of data set [1] is leukocyte-endothelial adhesion in the iridial microcirculation. The data set can be described thus: Endotoxin-induced uveitis (EIU), intravital microscopy, CB2R-/- mice. Format: in vivo. Particulars: topical 1.5% w/v, 6 h after LPS. The text has this:
Male BALB/c wild-type (WT; 25-30 g; Charles River, QC, Canada) and age-matched (6–8 weeks) CB2R knockout mice (CB2R^-/-) were used for experiments. CB2R^-/- mice were obtained by crossing male C57BL/6J CB2R^-/- mice (strain B6.129P2-Cnr2tm1Dgen/J; Jackson Laboratory, Bar Harbor, ME, USA) with inbred BALB/c female mice (Charles River) for ten generations. Heterozygote mice from separate parents were then bred for a homozygote knock-out of the CB2R^-/-. CB2R^-/- was confirmed via genotyping using DNA extracted from ear punches and the Accustart II Mouse Genotyping Kit (Quanta Biosciences, MD, USA). […]
IVM was conducted as previously described in Toguri et al. (2014). […] The iridial microcirculation was observed using an Olympus OV100 Small Animal Imaging System (Olympus, Tokyo, Japan), which contains an MT-20 light source, fluorescence excitation from a xenon lamp (150 W) and an excitation filter for rhodamine-6G (excitation 515–560 nm, emission 590 nm). Images were captured in real-time by a black and white DP70 CCD C-mount camera and digitally recorded using HCImage software (Hamamatsu, Herrsching, Germany).
During IVM animals were placed on a heating pad in a stereotactic frame, and Tear-Gel® (Novartis Pharmaceuticals Canada Inc., Dorval, QC, Canada) was applied to their cornea. […] Two to four videos of each quadrant were recorded for 30 s each. […]

Data set [2] relates to adhesion of adoptively-transferred leukocytes in the iridial microcirculation. The data set can be described thus: Adoptive transfer of WT leukocytes into neutrophil-depleted CB2R-/- mice with EIU. The class given is in vivo. To be noted: neutrophil-depleted CB2R-/- recipients with EIU, topical. On the procedure: For adoptive transfer experiments, calcein-AM-labelled leukocytes were visualized by fluorescence (495 nm excitation) in the iridial microcirculation using a Leica DMLM epifluorescence microscope (Leica, Wetzlar, Germany) equipped with a mercury-arc light source (LEG EBQ 100, Carl Zeiss, Jena, Germany) and captured by a CCD video camera (SIT 68, DAGE MTI, Michigan, IN, USA). Videos were recorded using WinDV Capture software (Mourek, Prague, Czech Republic) and stored on an external hard drive.
During IVM animals were placed on a heating pad in a stereotactic frame, and Tear-Gel® (Novartis Pharmaceuticals Canada Inc., Dorval, QC, Canada) was applied to their cornea. The iris was divided into four equal quadrants by drawing two superficial lines on the cornea, lengthwise and widthwise. […] Two to four videos of each quadrant were recorded for 30 s each. Videos were analyzed off-line without knowledge of the treatment groups. […] Using ImageJ software (National Institute of Health, Bethesda, MD, USA) the number of adherent leukocytes within each vessel segment was calculated by measuring the diameter and length of vessel segment studied, assuming a cylindrical geometry of blood vessels. Adherent leukocytes were expressed as number of cells per mm^2 of endothelial surface. […] The number of rolling leukocytes was counted for 30 s and used to calculate the number of rolling leukocytes per min. […]

For data set [3], the target named is T1, human CB1R (Homo sapiens, UniProt P21554).
T1 construct: host or cells: CHO
T1 sequence (P21554 whole entry): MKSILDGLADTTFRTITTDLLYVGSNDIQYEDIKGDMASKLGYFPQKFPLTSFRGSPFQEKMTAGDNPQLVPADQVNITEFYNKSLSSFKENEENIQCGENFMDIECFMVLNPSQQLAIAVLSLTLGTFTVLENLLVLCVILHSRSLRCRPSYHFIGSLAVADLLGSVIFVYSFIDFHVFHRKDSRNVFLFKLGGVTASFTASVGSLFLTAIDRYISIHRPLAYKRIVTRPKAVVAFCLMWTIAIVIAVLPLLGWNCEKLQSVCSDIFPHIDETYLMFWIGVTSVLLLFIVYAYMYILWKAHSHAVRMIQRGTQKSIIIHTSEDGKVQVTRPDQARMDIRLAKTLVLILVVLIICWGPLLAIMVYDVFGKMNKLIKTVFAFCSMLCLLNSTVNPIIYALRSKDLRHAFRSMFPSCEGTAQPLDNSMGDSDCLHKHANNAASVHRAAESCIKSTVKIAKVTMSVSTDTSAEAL
The data set can be described thus: PathHunter β-arrestin recruitment assay, hCB1R. Format: cell-based. Particulars: read-out: hCB1R: beta arrestin EC50. The method, then: Assays were carried out using the PathHunter hCB1_bgal, hCB2_bgal, or mCB2_bgal CHOK1 β-arrestin recruitment assay kit (DiscoveRx, Fremont, CA, USA) as previously described. A total of 5000 cells per well were seeded in 384-well plates (Perkin Elmer, MA, USA) containing 20 μL cell culture medium and incubated for 16–18 h at 37 °C and 5% CO2. Cells were stimulated with 10 μM of each agonist or 11 increasing concentrations and incubated for 90 min at 37 °C and 5% CO2. […] The cells were incubated for 90 min at 37 °C and 5% CO2. Compounds in DMSO stock solutions were added using a HP D300 Digital Dispenser (Tecan, Mannedorf, Switzerland). The final concentration of organic solvent per assay point was ≤ 0.1%. The PathHunter Detection mixture was used, according to the manufacturer’s protocol, to determine the β-galactosidase enzyme activity. Detection mixture, 12 μL per well, was added and the plate was incubated for 1 h in the dark at room temperature. Chemiluminescence, indicated as relative light unit, was measured on an EnVision multilabel plate reader (Perkin Elmer, MA, USA).
(In general: Arrestin recruitment assays detect the binding of arrestin to an activated receptor.)

The nature of data set [4]: pKa. Format: physicochemical. Particulars: read-out: pKa (basic).

With `CC(C)(C)c1nc(N2CC[C@H](O)C2)c2nnn(Cc3nnnn3C3CC3)c2n1` [RO6871304, (3S)-1-{5-tert-butyl-3-[(1-cyclopropyl-1H-tetrazol-5-yl)methyl]-3H-[1,2, 3]triazolo[4,5-d]pyrimidin-7-yl}pyrrolidin-3-ol], the “leukocyte adherence in CB2R-/- mice with EIU” value in data set [1] was “no significant reduction in leukocyte adherence”. For the same molecule, the “adhesion of adoptively-transferred leukocytes” value in data set [2] was “did not affect adhesion of adoptively-transferred leukocytes”. Further, the concentration for a half-maximal effect (EC50) in data set [3] was over 30 µM. Besides, the pKa in data set [4] is 2.7.
